Laboratory results taken from patent US5919940A, “Metalloproteinase inhibitors” (British Biotech Pharmaceuticals Limited, priority 1998, dated 1999).
Like-named read-outs stand apart in the source and are kept apart here.

What was measured:
Collagenase = assay: Inhibition of collagenase (acetylated 14C collagen hydrolysis; Cawston and Barrett); assay type: biochemical; settings: 37°, 16 hours, pH 7.5, read-out: In vitro inhibitory activity IC50, Collagenase
Source text: The samples were centrifuged to sediment undigested collagen, and an aliquot of the radioactive supernatant removed for assay on a scintillation counter as a measure of hydrolysis.

72 kDa Gelatinase = target: T1, 72 kDa Gelatinase (Homo sapiens, UniProt P08253); assay: Inhibition of 72 kDa gelatinase (14C-radiolabelled gelatin; Sellers et al); assay type: biochemical
T1 construct: endogenous in cells; host or cells: RPMI-7951 cells
T1 sequence (P08253 110-660): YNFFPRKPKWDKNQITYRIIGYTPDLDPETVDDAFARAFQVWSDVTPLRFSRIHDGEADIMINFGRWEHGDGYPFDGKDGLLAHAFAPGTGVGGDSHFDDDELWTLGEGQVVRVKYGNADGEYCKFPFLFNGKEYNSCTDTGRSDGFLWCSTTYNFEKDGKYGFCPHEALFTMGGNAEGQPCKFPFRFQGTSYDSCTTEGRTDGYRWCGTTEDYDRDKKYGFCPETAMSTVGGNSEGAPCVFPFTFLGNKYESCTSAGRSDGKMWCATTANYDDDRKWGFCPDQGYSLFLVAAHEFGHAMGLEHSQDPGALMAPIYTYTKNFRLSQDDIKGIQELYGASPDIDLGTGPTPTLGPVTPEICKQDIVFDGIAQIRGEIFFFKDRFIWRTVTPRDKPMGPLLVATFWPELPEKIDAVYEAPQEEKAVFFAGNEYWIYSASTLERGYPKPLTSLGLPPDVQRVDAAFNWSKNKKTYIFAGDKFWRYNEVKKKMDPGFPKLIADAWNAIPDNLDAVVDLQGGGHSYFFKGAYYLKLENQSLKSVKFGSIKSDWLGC

stromelysin [1] = target: T2, stromelysin (Homo sapiens, UniProt P08254); assay: biochemical
T2 sequence (P08254 100-477): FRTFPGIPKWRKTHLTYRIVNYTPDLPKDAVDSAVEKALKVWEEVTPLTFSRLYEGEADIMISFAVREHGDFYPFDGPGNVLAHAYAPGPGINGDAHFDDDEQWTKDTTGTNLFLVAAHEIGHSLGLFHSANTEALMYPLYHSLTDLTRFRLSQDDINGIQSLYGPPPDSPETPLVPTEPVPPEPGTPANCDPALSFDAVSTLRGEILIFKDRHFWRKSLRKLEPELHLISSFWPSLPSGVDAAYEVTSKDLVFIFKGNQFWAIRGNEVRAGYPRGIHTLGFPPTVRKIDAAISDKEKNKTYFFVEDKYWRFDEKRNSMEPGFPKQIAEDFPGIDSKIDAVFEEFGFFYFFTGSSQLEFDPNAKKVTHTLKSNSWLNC
Source text: (§1) The casein was acetylated ^14 C casein prepared by the method of Cawston et al (ibid).

stromelysin [2] = target: T2, stromelysin; settings: read-out: In vitro inhibitory activity IC50, Stromelsin; 14C acetylated casein, 37°, 16 hours, pH 7.5
Source text: as §1

[3] = enzyme from RPMI-7951 cells, 14C gelatin, 37° C., 16 hours, read-out: In vitro inhibitory activity IC50, 72 kDa Gelatinase

## CNC(=O)[C@H](Cc1ccccc1)NC(=O)[C@@H](CC(=O)NO)CC(C)C [Comparator 1, 5-Methyl-3R-(1S-methylcarbamoyl-2-phenylethylcarbamoyl)hexanohydroxamic acid, reference compound]
Collagenase
  IC50: 15 nM

## CNC(=O)[C@@H](NC(=O)[C@@H](CC(=O)NO)CC(C)C)C(C)(C)C [Comparator 3, 3R-(2,2-Dimethyl-1S-methylcarbamoyl-propylcarbamoyl)-5-methylhexanohydroxamic acid, reference compound]
Collagenase
  IC50: 10 nM
72 kDa Gelatinase
  IC50: 8 nM
Stromelysin [1]
  IC50: 700 nM

## CNC(=O)[C@H](Cc1ccccc1)NC(=O)[C@H](CC(C)C)[C@H](O)C(=O)NO [Comparator 4, 2S-Hydroxy-3R-(1S-methylcarbamoyl-2-phenylethylcarbamoyl)-5-methylhexanohydroxamic acid, reference compound]
Collagenase
  IC50: 15 nM
72 kDa Gelatinase; [3]
  IC50: 3 nM
Stromelysin [1]
  IC50: 200 nM

## CNC(=O)[C@H](CC(C)C)NC(=O)[C@H](CC(C)C)[C@H](O)C(=O)NO [Comparator 5, 2S-Hydroxy-3R-(1S-methylcarbamoyl-3-methyl-butylcarbamoyl)-5methylhexanohydroxamic acid, reference compound]
Collagenase
  IC50: 8 nM
Stromelysin [1]
  IC50: 90 nM

## CC(C)C[C@H](CC(=O)NO)C(=O)N[C@@H](Cc1ccccc1)C(=O)Nc1ccccc1 [Example 1, 5-Methyl-3R-(2-phenyl-1S-phenylcarbamoylethylcarbamoyl)-hexanohydroxamic acid]
Collagenase
  IC50: 20 nM
72 kDa Gelatinase; [3]
  IC50: 60 nM
Stromelysin [2]
  IC50: 10 nM

## CC(C)C[C@H](CC(=O)NO)C(=O)N[C@H](C(=O)Nc1ccccc1)C(C)(C)C [Example 2, 3R-(2,2-Dimethyl-1S-phenylcarbamoyl-propylcarbamoyl)-5-methyl-hexanohydroxamic acid]
Collagenase
  IC50: 30 nM
72 kDa Gelatinase; [3]
  IC50: 30 nM
Stromelysin [1]
  IC50: 15 nM

## CC(C)C[C@H](CC(=O)NO)C(=O)N[C@H](C(=O)Nc1ccccn1)C(C)(C)C [Example 3, 3R-(2,2-Dimethyl-1S-pyridin-2-ylcarbamoyl-propylcarbamoyl)-5-methyl-hexanohydroxamic acid]
Collagenase
  IC50: 40 nM
72 kDa Gelatinase; [3]
  IC50: 30 nM
Stromelysin [1]
  IC50: 150 nM

## CC(C)C[C@@H](C(=O)N[C@H](C(=O)Nc1ccccc1)C(C)(C)C)[C@H](O)C(=O)NO [Example 4, 3R-(2,2-Dimethyl-1S-phenylcarbamoyl-propylcarbamoyl)-2S-hydroxy-5-methylhexanohydroxamic acid]
Collagenase
  IC50: 2 nM
72 kDa Gelatinase; [3]
  IC50: 5 nM
Stromelysin [1]
  IC50: 9 nM

## CC(C)C[C@H](NC(=O)[C@H](CC(C)C)[C@H](O)C(=O)NO)C(=O)Nc1ccc2ccccc2c1 [Example 5, 2S-Hydroxy-3R-(3-methyl-1S-napth-2-ylcarbamoyl-butylcarbamoyl)-5-methylhexanohydroxamic acid]
Collagenase
  IC50: 30 nM
72 kDa Gelatinase; [3]
  IC50: 6 nM
Stromelysin [1]
  IC50: 5 nM

## COc1ccc(NC(=O)[C@H](Cc2ccccc2)NC(=O)[C@H](CC(C)C)[C@H](O)C(=O)NO)cc1 [Example 6]
Collagenase
  IC50: 30 nM
72 kDa Gelatinase; [3]
  IC50: 8 nM
Stromelysin [1]
  IC50: 3 nM

## CC(C)C[C@@H](C(=O)N[C@H](C(=O)Nc1ccccn1)C(C)(C)C)[C@H](O)C(=O)NO [Example 8, 3R-(2,2-Dimethyl-1S-pyridin-2-ylcarbamoyl-propylcarbamoyl)-2S-hydroxy-5-methylhexanohydroxamic acid]
Collagenase
  IC50: 6 nM
72 kDa Gelatinase; [3]
  IC50: 15 nM
Stromelysin [1]
  IC50: 30 nM

## Cc1nc(NC(=O)[C@@H](NC(=O)[C@H](CC(C)C)[C@H](O)C(=O)NO)C(C)(C)C)sc1C [Example 17, 3R-(2,2-Dimethyl-1S-(4,5-dimethylthiazol-2-ylcarbamoyl)-propylcarbamoyl)-2S-hydroxy-5-methylhexanohydroxamic acid]
Collagenase
  IC50: 2 nM
72 kDa Gelatinase; [3]
  IC50: 30 nM
Stromelysin [1]
  IC50: 20 nM
